Converted amounts (≈) assume the structure as drawn.
What was measured:
Type in all cases: functional
[1] = system: Candida albicans; experiment: Antifungal activity against Candida albicans ATCC 10231 by micro-broth dilution method
[2] = system: Candida tropicalis; experiment: Antifungal activity against Candida tropicalis C131 by micro-broth dilution method
[3] = system: Saccharomyces cerevisiae; experiment: Antifungal activity against Saccharomyces cerevisiae ATCC 9763 by microbroth dilution method
[4] = system: Cryptococcus neoformans; experiment: Antifungal activity against Cryptococcus neoformans ATCC 32264 by microbroth dilution method
[5] = system: Aspergillus fumigatus; experiment: Antifungal activity against Aspergillus fumigatus ATCC 26934 by micro-broth dilution method
[6] = system: Aspergillus flavus; experiment: Antifungal activity against Aspergillus flavus ATCC 9170 by micro-broth dilution method
[7] = system: Trichophyton rubrum; experiment: Antifungal activity against Trichophyton rubrum C113 by microbroth dilution method
[8] = system: Aspergillus niger; experiment: Antifungal activity against Aspergillus niger ATCC 9029 by micro-broth dilution method
[9] = system: Nannizzia gypsea; experiment: Antifungal activity against Microsporum gypseum C115 by microbroth dilution method
[10] = system: Trichophyton mentagrophytes; experiment: Antifungal activity against Trichophyton mentagrophytes ATCC 9972 by micro-broth dilution method

| MIC [1] [µg/mL] | MIC [2] [µg/mL] | MIC [3] [µg/mL] | MIC [4] [µg/mL] | MIC [5] [µg/mL] | MIC [6] [µg/mL] | MIC [7] [µg/mL] | MIC [8] [µg/mL] | MIC [9] [µg/mL] | MIC [10] [µg/mL] | SMILES |
| --- | --- | --- | --- | --- | --- | --- | --- | --- | --- | --- |
| > 250 | > 250 | > 250 | > 250 | 250 (≈ 1230 µM) | 250 (≈ 1230 µM) | 100 (≈ 492 µM) | 250 (≈ 1230 µM) | 100 (≈ 492 µM) | 50 (≈ 246 µM) | COc1ccc(NCc2ccco2)cc1 |
| > 250 | > 250 | > 250 | > 250 | > 250 | > 250 | > 250 | > 250 | > 250 | > 250 | C=CCC(Nc1ccc(C)cc1)c1ccsc1 (stereo not given) |
| > 250 | > 250 | > 250 | > 250 | > 250 | > 250 | 250 (≈ 1260 µM) | > 250 | 250 (≈ 1260 µM) | 250 (≈ 1260 µM) | Cc1ccc(NCc2cccnc2)cc1 |
| > 250 | > 250 | > 250 | > 250 | > 250 | > 250 | > 250 | > 250 | > 250 | > 250 | Cc1ccc(NCc2cccn2C)cc1 |
| > 250 | > 250 | > 250 | > 250 | > 250 | > 250 | 50 (≈ 252 µM) | > 250 | 50 (≈ 252 µM) | 50 (≈ 252 µM) | Cc1ccc(NCc2ccccn2)cc1 |
| > 250 | > 250 | > 250 | > 250 | > 250 | > 250 | > 250 | > 250 | > 250 | > 250 | C=CCC(Nc1ccc(C)cc1)c1ccco1 (stereo not given) |
| 62.5 (≈ 279 µM) | 62.5 (≈ 279 µM) | 250 (≈ 1120 µM) | 62.5 (≈ 279 µM) | 125 (≈ 559 µM) | 250 (≈ 1120 µM) | 62.5 (≈ 279 µM) | 250 (≈ 1120 µM) | 62.5 (≈ 279 µM) | 62.5 (≈ 279 µM) | Clc1ccc(NCc2cccs2)cc1 |

Second part, the compound before the results:

| SMILES | MIC [1] [µg/mL] | MIC [2] [µg/mL] | MIC [3] [µg/mL] | MIC [4] [µg/mL] | MIC [5] [µg/mL] | MIC [6] [µg/mL] | MIC [7] [µg/mL] | MIC [8] [µg/mL] | MIC [9] [µg/mL] | MIC [10] [µg/mL] |
| --- | --- | --- | --- | --- | --- | --- | --- | --- | --- | --- |
| Clc1ccc(NCc2ccncc2)cc1 | 31.2 (≈ 143 µM) | 31.2 (≈ 143 µM) | 62.5 (≈ 286 µM) | 62.5 (≈ 286 µM) | 125 (≈ 572 µM) | 125 (≈ 572 µM) | 62.5 (≈ 286 µM) | 125 (≈ 572 µM) | 62.5 (≈ 286 µM) | 62.5 (≈ 286 µM) |
| C=CCC(Nc1ccc(Cl)cc1)c1ccsc1 (stereo not given) | > 250 | > 250 | > 250 | 250 (≈ 948 µM) | > 250 | > 250 | > 250 | > 250 | > 250 | > 250 |
| CN(C/C=C/C#CC(C)(C)C)Cc1cccc2ccccc12 [TERBINAFINE] |  |  |  |  |  |  | 0.01 (≈ 0.0343 µM) |  | 0.04 (≈ 0.137 µM) | 0.04 (≈ 0.137 µM) |
| Cc1ccc(NCc2ccncc2)cc1 | 100 (≈ 504 µM) | 50 (≈ 252 µM) | 100 (≈ 504 µM) | 50 (≈ 252 µM) | 100 (≈ 504 µM) | 200 (≈ 1010 µM) | 25 (≈ 126 µM) | 100 (≈ 504 µM) | 50 (≈ 252 µM) | 25 (≈ 126 µM) |
| C=CCC(Nc1ccc(C)cc1)c1cccs1 (stereo not given) | > 250 | > 250 | > 250 | > 250 | > 250 | > 250 | 12.5 (≈ 51.4 µM) | > 250 | 50 (≈ 205 µM) | 6.25 (≈ 25.7 µM) |
| C=CCC(Nc1cc(C)cc(C)c1)c1ccncc1 (stereo not given) | 250 (≈ 991 µM) | 250 (≈ 991 µM) | 250 (≈ 991 µM) | > 250 | > 250 | > 250 | 250 (≈ 991 µM) | > 250 | 125 (≈ 495 µM) | 125 (≈ 495 µM) |
| C[C@@H]1[C@H](O)[C@@H](C)/C=C/C=C/C=C/C=C/C=C/C=C/C=C/[C@H](O[C@@H]2O[C@H](C)[C@@H](O)[C@H](N)[C@@H]2O)C[C@@H]2O[C@](O)(C[C@@H](O)C[C@@H](O)[C@H](O)CC[C@@H](O)C[C@@H](O)CC(=O)O[C@H]1C)C[C@H](O)[C@H]2C(=O)O [AMPHOTERICIN B] | 1 (≈ 1.08 µM) | 0.5 (≈ 0.541 µM) | 0.5 (≈ 0.541 µM) | 0.25 (≈ 0.271 µM) | 0.5 (≈ 0.541 µM) | 0.5 (≈ 0.541 µM) |  | 0.5 (≈ 0.541 µM) |  |  |
